From US5089623A, “Certain imidate insecticides” (Imperial Chemical Industries Plc, priority 1990, dated 1992)

Key:
Format in all cases: in vivo
[1] = test system: Housefly [Musca domestica]; test: Housefly insecticidal test (HF); settings: per 25 female houseflies, 48 hours
[2] = test system: Aster Leafhopper [Macrosteles fascifrens (Stal)]; test: Aster leafhopper test (LH); settings: adults/nymphs, 48 hours, percent in solution
[3] = test system: Cabbage Looper [Trichoplusia ni (Hubner)]; test: Cabbage looper test (CL); settings: second-instar larvae, 3-5 days, percent in solution
[4] = test system: Tobacco Budworm [Heliothis virescens (Fabricius)] eggs; test: Tobacco budworm egg test (TBW-E); settings: percent in solution
[5] = test system: Maize weevil [Sitophilus Zeamais (Motschulsky)]; test: Maize weevil test (MW); settings: adult weevils, treated corn seeds, 48 hours, percent in solution
Summary of the method: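 Adult weevils (10) were placed with four corn seeds that had been dipped 2-3 s in compound dissolved in 50:50 acetone:water, then dried, and held at about 25° C. Mortality was scored at 48 h. LC50 was taken from dosage-mortality curves and expressed as percent compound in solution, from a 0.01% top concentration.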

COc1ccc(N=C(OCc2ccc(F)c(Oc3ccc(F)cc3)c2)C(C)C)cc1OC [Compound 363]
LC50 HF [1]: < 100 µg | LC50 LH [2]: > 0.05% | LC50 CL [3]: > 0.1% | LC50 TBW E [4]: > 0.1% | LC50 MW [5]: > 0.01%

C#CC(OC(=Nc1cccc(C(F)(F)F)c1)C(C)C)c1cccc(Oc2ccccc2)c1 (stereo not shown) [Compound 519]
LC50 HF [1]: 60 µg | LC50 LH [2]: > 0.05% | LC50 CL [3]: 0.0037% | LC50 TBW E [4]: > 0.1% | LC50 MW [5]: > 0.01%

CC(C)(C)C(=Nc1ccc(Cl)c(Cl)c1)OCc1cccc(Oc2ccccc2)c1 [Compound 25]
LC50 HF [1]: > 100 µg | LC50 LH [2]: > 0.05% | LC50 CL [3]: 0.01% | LC50 TBW E [4]: > 0.1% | LC50 MW [5]: > 0.01%

CC1(C)C(C(=Nc2ccc(F)c(Cl)c2)OCc2cccc(Oc3ccccc3)c2)C1(C)C [Compound 124]
LC50 HF [1]: 17 µg | LC50 LH [2]: > 0.05% | LC50 CL [3]: 0.01% | LC50 TBW E [4]: > 0.1% | LC50 MW [5]: > 0.01%

CC(C)C(=Nc1ccc2c(c1)OCO2)OCc1ccnc(Oc2ccccc2)c1 [Compound 540]
LC50 HF [1]: > 100 µg | LC50 LH [2]: > 0.05% | LC50 CL [3]: < 0.1% | LC50 TBW E [4]: > 0.1% | LC50 MW [5]: > 0.01%

CC(C)C(=Nc1ccc(C(F)(F)F)cc1)OCc1cccc(Oc2ccc(Cl)cc2)c1 [Compound 365]
LC50 HF [1]: > 100 µg | LC50 LH [2]: < 0.05% | LC50 CL [3]: 0.00025% | LC50 TBW E [4]: 0.038% | LC50 MW [5]: > 0.01%

CSc1cccc(N=C(OCc2ccc(F)c(Oc3ccccc3)c2)C(C)C)c1 [Compound 362]
LC50 HF [1]: < 100 µg | LC50 LH [2]: > 0.05% | LC50 CL [3]: > 0.1% | LC50 TBW E [4]: > 0.1% | LC50 MW [5]: > 0.01%

COCc1c(F)c(F)c(COC(=Nc2ccc(C(C)(C)C)cc2)C(C)C)c(F)c1F [Compound 544]
LC50 HF [1]: > 100 µg | LC50 LH [2]: > 0.05% | LC50 CL [3]: > 0.1% | LC50 TBW E [4]: > 0.1% | LC50 MW [5]: > 0.01%

Cc1cccc(N=C(OCc2cccc(Oc3ccccc3)c2)C(C)C)c1 [Compound 155]
LC50 HF [1]: 9 µg | LC50 LH [2]: > 0.05% | LC50 CL [3]: 0.004% | LC50 TBW E [4]: 0.06% | LC50 MW [5]: > 0.01%

CC(C)C(=Nc1ccc(F)c(Cl)c1)OCc1cccc(Oc2ccc(Cl)cn2)c1 [Compound 527]
LC50 HF [1]: 47 µg | LC50 LH [2]: > 0.05% | LC50 CL [3]: 0.00065% | LC50 TBW E [4]: 0.035% | LC50 MW [5]: > 0.01%

CSc1ccc(N=C(OCc2ccc(F)c(Oc3ccccc3)c2)C(C)C)cc1 [Compound 353]
LC50 HF [1]: < 100 µg | LC50 LH [2]: > 0.05% | LC50 CL [3]: > 0.1% | LC50 TBW E [4]: > 0.1% | LC50 MW [5]: > 0.01%

Cc1ccc(N=C(OCc2cccc(Oc3ccccc3)c2)C(C)C)cc1 [Compound 156]
LC50 HF [1]: 10 µg | LC50 LH [2]: > 0.05% | LC50 CL [3]: 0.004% | LC50 TBW E [4]: 0.05% | LC50 MW [5]: > 0.01%

CC(C)C(=Nc1ccc(Br)c(C(F)(F)F)c1)OCc1ccc(F)c(Oc2ccc(F)cc2)c1 [Compound 364]
LC50 HF [1]: < 100 µg | LC50 LH [2]: < 0.05% | LC50 CL [3]: 0.00045% | LC50 TBW E [4]: 0.025% | LC50 MW [5]: > 0.01%

COCc1c(F)c(F)c(COC(=Nc2ccc(F)c(Cl)c2F)C(C)C)c(F)c1F [Compound 522]
LC50 HF [1]: 17.5 µg | LC50 LH [2]: 0.05% | LC50 CL [3]: > 0.1% | LC50 TBW E [4]: > 0.1% | LC50 MW [5]: > 0.01%

Cc1cc(N=C(OCc2ccc(F)c(Oc3ccccc3)c2)C(C)C)ccc1Br [Compound 358]
LC50 HF [1]: < 100 µg | LC50 LH [2]: < 0.05% | LC50 CL [3]: > 0.1% | LC50 TBW E [4]: > 0.1% | LC50 MW [5]: > 0.01%

CC(C)C(=Nc1ccc(F)c(Cl)c1)OCc1cccc(OCc2ccc(F)cc2)c1 [Compound 490]
LC50 HF [1]: > 100 µg | LC50 LH [2]: > 0.05% | LC50 CL [3]: 0.0045% | LC50 TBW E [4]: > 0.1% | LC50 MW [5]: > 0.01%

Cc1ccc(N=C(OCc2ccc(F)c(Oc3ccc(F)cc3)c2)C(C)C)cc1Cl [Compound 357]
LC50 HF [1]: < 100 µg | LC50 LH [2]: < 0.05% | LC50 CL [3]: > 0.1% | LC50 TBW E [4]: > 0.1% | LC50 MW [5]: 0.01%

CC(C)C(=Nc1ccc2c(c1)OCO2)OCc1cccc(Oc2ccc(C(C)(C)C)cc2)c1 [Compound 367]
LC50 HF [1]: > 100 µg | LC50 LH [2]: > 0.05% | LC50 CL [3]: < 0.1% | LC50 TBW E [4]: > 0.1% | LC50 MW [5]: > 0.01%

Cc1ccc(N=C(OCc2ccc(F)c(Oc3ccc(F)cc3)c2)C(C)C)cc1F [Compound 355]
LC50 HF [1]: < 100 µg | LC50 LH [2]: < 0.05% | LC50 CL [3]: > 0.1% | LC50 TBW E [4]: > 0.1% | LC50 MW [5]: > 0.01%

CC(C)C(=Nc1ccccc1Br)OCc1cccc(Oc2ccccc2)c1 [Compound 132]
LC50 HF [1]: 65 µg | LC50 LH [2]: > 0.05% | LC50 CL [3]: 0.025% | LC50 TBW E [4]: > 0.1% | LC50 MW [5]: > 0.01%

CC(C)C(=Nc1ccc(Cl)cc1)OCc1cccc(Oc2ccc(F)cc2)c1 [Compound 189]
LC50 HF [1]: 17 µg | LC50 LH [2]: 0.002% | LC50 CL [3]: 0.00027% | LC50 TBW E [4]: 0.07% | LC50 MW [5]: > 0.01%

CC(C)C(=Nc1ccc(F)c(Cl)c1)OCc1cc(Oc2ccc(F)cc2)ccn1 [Compound 529]
LC50 HF [1]: 27.7 µg | LC50 LH [2]: > 0.05% | LC50 CL [3]: > 0.0025% | LC50 TBW E [4]: > 0.1% | LC50 MW [5]: > 0.01%

CC(C)C(=Nc1ccccc1C(F)(F)F)OCc1cccc(Oc2ccccc2)c1 [Compound 72]
LC50 HF [1]: > 100 µg | LC50 LH [2]: > 0.05% | LC50 CL [3]: 0.08% | LC50 TBW E [4]: > 0.1% | LC50 MW [5]: > 0.01%

CC(C)C(=Nc1ccc(F)c(Cl)c1)OCc1cccc(Oc2ccccc2F)c1 [Compound 119]
LC50 HF [1]: 27 µg | LC50 LH [2]: 0.0008% | LC50 CL [3]: 0.0007% | LC50 TBW E [4]: 0.048% | LC50 MW [5]: > 0.01%

CCc1ccc(N=C(OCc2ccc(F)c(Oc3ccccc3)c2)C(C)C)cc1 [Compound 360]
LC50 HF [1]: < 100 µg | LC50 LH [2]: < 0.05% | LC50 CL [3]: 0.006% | LC50 TBW E [4]: > 0.1% | LC50 MW [5]: > 0.01%

COc1ccc(N=C(OCc2cccc(Oc3ccccc3)c2)C(C)C)cc1 [Compound 160]
LC50 HF [1]: 7 µg | LC50 LH [2]: 0.05% | LC50 CL [3]: 0.005% | LC50 TBW E [4]: 0.09% | LC50 MW [5]: > 0.01%

CC(C)C(=Nc1ccc(C(F)(F)F)cc1)OCc1cccc(Cc2ccccc2)c1 [Compound 543]
LC50 HF [1]: < 100 µg | LC50 LH [2]: < 0.05% | LC50 CL [3]: 0.0008% | LC50 TBW E [4]: > 0.1% | LC50 MW [5]: > 0.01%

CC(C)C(=Nc1ccc2c(c1)OCO2)OCc1ccc(F)c(Oc2ccc(Cl)cc2)c1 [Compound 366]
LC50 HF [1]: < 100 µg | LC50 LH [2]: 0.05% | LC50 CL [3]: 0.0007% | LC50 TBW E [4]: 0.012% | LC50 MW [5]: > 0.01%

Cc1c(COC(=Nc2ccc(C(C)(C)C)cc2)C(C)C)cccc1-c1ccccc1 [Compound 536]
LC50 HF [1]: > 100 µg | LC50 LH [2]: > 0.05% | LC50 CL [3]: < 0.1% | LC50 TBW E [4]: > 0.1% | LC50 MW [5]: > 0.01%

FC(F)(F)C(=Nc1ccc(Cl)cc1)OCc1cccc(Oc2ccccc2)c1 [Compound 35]
LC50 HF [1]: 15 µg | LC50 LH [2]: > 0.05% | LC50 CL [3]: 0.008% | LC50 TBW E [4]: 0.03% | LC50 MW [5]: > 0.01%

c1ccc(Oc2cccc(COC(=Nc3ccc4c(c3)OCO4)C3CC3)c2)cc1 [Compound 177]
LC50 HF [1]: 13 µg | LC50 LH [2]: > 0.05% | LC50 CL [3]: 0.002% | LC50 TBW E [4]: > 0.1% | LC50 MW [5]: 0.01%

CC(C)C(=Nc1cccc(C(F)(F)F)c1)OCc1cc(Oc2ccc(F)cc2)ccn1 [Compound 528]
LC50 HF [1]: 59.1 µg | LC50 LH [2]: > 0.05% | LC50 CL [3]: 0.0075% | LC50 TBW E [4]: > 0.1% | LC50 MW [5]: > 0.01%

CC(C)C(=Nc1cccc(I)c1)OCc1cccc(Oc2ccc(F)cc2)c1 [Compound 255]
LC50 HF [1]: 16 µg | LC50 LH [2]: 0.0005% | LC50 CL [3]: 0.00017% | LC50 TBW E [4]: 0.075% | LC50 MW [5]: > 0.01%

CC(C)C(=Nc1ccc(Cl)c(C(F)(F)F)c1)OCc1cccc(Oc2ccc(F)cc2)c1 [Compound 193]
LC50 HF [1]: 100 µg | LC50 LH [2]: 0.001% | LC50 CL [3]: 0.00075% | LC50 TBW E [4]: > 0.1% | LC50 MW [5]: > 0.01%

COC(=O)c1ccc(N=C(OCc2cccc(Oc3ccccc3)c2)C(C)C)cc1 [Compound 151]
LC50 HF [1]: 38 µg | LC50 LH [2]: > 0.05% | LC50 CL [3]: 0.009% | LC50 TBW E [4]: > 0.1% | LC50 MW [5]: > 0.01%

CCC(=Nc1ccc2c(c1)OCO2)OCc1cccc(Oc2ccccc2)c1 [Compound 178]
LC50 HF [1]: 6 µg | LC50 LH [2]: > 0.05% | LC50 CL [3]: 0.004% | LC50 TBW E [4]: > 0.1% | LC50 MW [5]: > 0.01%

N#CC(=Nc1ccc(Cl)cc1)OCc1cccc(Oc2ccccc2)c1 [Compound 21]
LC50 HF [1]: 7 µg | LC50 LH [2]: > 0.05% | LC50 CL [3]: 0.02% | LC50 TBW E [4]: > 0.1% | LC50 MW [5]: > 0.01%

CC(C)C(=Nc1ccc([N+](=O)[O-])cc1)OCc1coc(Cc2ccccc2)c1 [Compound 539]
LC50 HF [1]: 22 µg | LC50 LH [2]: > 0.05% | LC50 CL [3]: > 0.1% | LC50 TBW E [4]: > 0.1% | LC50 MW [5]: > 0.01%
